Molecules are shown by their SMILES. Peptide text beside a SMILES is read from it.

From patent US20220151935A1, “USE OF AMINO ACID BASED NUTRIENTS AND PHARMACEUTICAL COMPOSITION CONTAINING THE SAME” (priority 2018, published 2022) come the findings set out here.

For one series, the system named is breast cancer 4T1 cells. The series is described as follows: Tumor weight and tumor inhibition in BALB/c mice bearing breast cancer 4T1 cells.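 As to all read-outs here: subcutaneous grafts in the right axilla, tumors excised and weighed after euthanasia, inhibition rate derived from group mean tumor weight versus the negative control group.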 The settings on record: for Intratumoral injection Tumor inhibition rate / Intratumoral injection Tumor weight: Table 10, avg tumor volume 336 mm^3, 150 μl/mouse every 3 days x3, 5th day after last dose; for Tumor inhibition rate / Tumor weight / Tumor weight (x ± s) / Tumor weight (g) (x ± s): intratumoral 150 μl/mouse every 3 days x3.

In series [1] the test system is pancreatic cancer cells PANC-1. The series is described as follows: Tumor inhibition in nude mice bearing pancreatic cancer cells PANC-1. Format: in vivo. The settings on record: for Tumor inhibition rate of intraperitoneal injection / Tumor inhibition rate of intratumoral injection: Table 3, avg tumor volume 105 mm^3, 100 μl/mouse every 3 days x3, next day after last dose; for Tumor inhibition rate: Table 4, avg tumor volume 136 mm^3, intratumoral every 3 days x3, ≤150 μl, next day. Here is the method: (§1) They were injected intraperitoneally and intratumorally.
After anatomy, the tumor weight was measured and the tumor inhibition rate was calculated.

Series [2] relates to human liver cancer cells (HepG2). The series is described as follows: Tumor weight and tumor inhibition in nude mice bearing HepG2. Format: in vivo. Particulars: for Intratumoral injection Tumor inhibition rate / Intratumoral injection Tumor weight / Tumor inhibition rate of intraperitoneal injection: 5th day after last dose; for Y(%) tumor inhibition rate: intratumoral every 3 days x3, <150 μl, fifth day. How it is done: (§2) One of the core characteristics of tumors is heterogeneity. […] The corresponding negative control was normal saline.
as §1
The negative control group was given normal saline. The compositions of the study drug are as shown in the table below: 4 types and concentrations of amino acid based nutrient single drugs (X % amino acid based nutrients), 18 types and concentrations of ineffective absorption drugs (Y % ineffective absorption drugs), 24 compositions comprising various types and concentrations of amino acid based nutrients and ineffectively absorption drugs (X % amino acid based nutrients/Y % ineffectively absorption drugs).
The negative control was normal saline. The compositions of 16 study drugs, as shown in the table below, comprise: a 5-fluorouracil single drug of 4 varying concentrations (X % 5-fluorouracil), and an amino acid based nutrient with 5 varying concentrations (Y % amino acid based nutrient), 7 compositions consisting of 5-fluorouracil of varying concentrations and an amino acid based nutrient of varying concentrations (X % 5-fluorouracil/Y % amino acid based nutrient). […] The dose at each time was: 5-fluorouracil 50 mg/kg, glutathione ≤1 g/kg, and an injection volume was ≤150 μl/mouse.
The negative control was normal saline, the positive control was 1% 5-fluorouracil, and the study drug was 1% methylene blue/10% amino acid based nutrient composition (the type of the amino acid based nutrient is variable). The amino acid based nutrients in the compositions used in study groups 1-13 were: arginine, glycine, cysteine hydrochloride, valine, threonine, proline, histidine hydrochloride, phenylalanine, lysine, leucine, alanine, glutathione, serine, and the study drug used in the study group 14 was 1% methylene blue/5% arginine/5% glycine.

The nature of series [3]: pH of the drug composition. Format: physicochemical. Particulars: aqueous solution.
The test system of series [4] is human stomach cancer cells (BGC823). Description: Tumor inhibition in nude mice bearing human stomach cancer cells (BGC823). The settings on record: Example 2; intratumoral 100 μl/mouse every 3 days x3; next day; avg tumor volume 85 mm^3.
Experimental: (§3) The tumor growth inhibition rate (abbreviated as tumor inhibition rate in the present invention) is calculated through the following equation:
(§4) wherein TW is an average tumor weight of a study group; CW is an average tumor weight of a negative control group.
(§5) In the following experiments, the nude mice bearing human tumor cells and successfully modeled were randomly divided into 1 negative control group and 4 study groups (groups A, B, C, and D). The corresponding negative control was normal saline. […] Each group was injected intratumorally, once every 3 days, for a total of 3 times, each time with 100 μl/mouse. On the next day after the administration of drugs was ended, the animals were euthanized, the tumor weight was measured after anatomy, and the tumor inhibition rate was calculated from the respective negative control group.
In this research experiment, successfully modeled nude mice bearing human stomach cancer cells (BGC823) (with an average tumor volume of 85 mm^3) were randomly divided into a negative control group and 4 study groups (groups A, B, C, and D).
For series [5], the system named is human thyroid cancer cells (SW579). The series is described as follows: Tumor inhibition in nude mice bearing human thyroid cancer cells (SW579). The settings on record: Example 2; intratumoral 100 μl/mouse every 3 days x3; next day; avg tumor volume 103 mm^3.
Experimental: as §3, §4
(§6) In the following experiments, the nude mice bearing human tumor cells and successfully modeled were randomly divided into 1 negative control group and 4 study groups (groups A, B, C, and D). The corresponding negative control was normal saline. The four study drugs were 20% arginine, 3% glutamic hydrochloride, 10% alanyl-glutamine, and 10% glutathione. Each group was injected intratumorally, once every 3 days, for a total of 3 times, each time with 100 μl/mouse. On the next day after the administration of drugs was ended, the animals were euthanized, the tumor weight was measured after anatomy, and the tumor inhibition rate was calculated from the respective negative control group.
(§7) In this series of experiments, successfully modeled nude mice bearing human cancer cells were randomly divided into 1 negative control group and 5 study groups (groups A, B, C, D and E). […] Each group was injected intratumorally, once every 3 days, for a total of 3 times, each time with 150 μl/mouse. On the next day after the administration was ended, the animals were euthanized, the tumor weight was measured after anatomy, and the tumor inhibition rate was calculated from the respective negative control group.
(§8) In this series of experiments, successfully modeled nude mice bearing human cancer cells were randomly divided into 1 negative control group and 6 study groups (groups A, B, C, D, E and F). […] Each group was injected intratumorally, once every 3 days, for a total of 3 times, each time with 100 μl/mouse. On the next day after the administration was ended, the animals were euthanized, the tumor weight was measured after anatomy, and the tumor inhibition rate was calculated from the respective negative control group.
(§9) In this series of experiments, successfully modeled nude mice bearing human cancer cells were randomly divided into 1 negative control group and 3 study groups. […] Each group was injected intratumorally, once every 3 days, for a total of 3 times, each time with 150 μl/mouse.
Series [6] deals with human breast cancer cells (MDA-MB231). Description: Tumor inhibition in nude mice bearing human breast cancer cells (MDA-MB231). The settings on record: Example 2; intratumoral 100 μl/mouse every 3 days x3; next day; avg tumor volume 71 mm^3.
Experimental: as §3, §4, §6
In this research experiment, successfully modeled nude mice bearing human breast cancer cells (MDA-MB231) (with an average tumor volume of 71 mm^3) were randomly divided into a negative control group and 4 study groups (groups A, B, C, and D).
Each group was injected intratumorally, once every 3 days, for a total of 3 times, each time with 150 μl/mouse. On the next day after the administration was ended, the animals were euthanized, the tumor weight was measured after anatomy, and the tumor inhibition rate was calculated from the respective negative control group.
Each group was injected intratumorally, once every 3 days, for a total of 3 times, each time with 100 μl/mouse. On the next day after the administration was ended, the animals were euthanized, the tumor weight was measured after anatomy, and the tumor inhibition rate was calculated from the respective negative control group.
Series [7] has as its system human head and neck cancer cells (Fμda). Description: Tumor inhibition in nude mice bearing human head and neck cancer cells (Fμda). The series is classed as in vivo. The settings on record: Example 2; intratumoral 100 μl/mouse every 3 days x3; next day; avg tumor volume 109 mm^3.
Text: as §2

In series [8] the test system is human prostate cancer cells (LNCaP/AR). The series is described as follows: Tumor inhibition in nude mice bearing human prostate cancer cells (LNCaP/AR). Particulars: Example 2; intratumoral 100 μl/mouse every 3 days x3; next day; avg tumor volume 91 mm^3.
Experimental: as §3, §4, §6
In this research experiment, successfully modeled nude mice bearing human prostate cancer cells (LNCaP/AR) (with an average tumor volume of 91 mm^3) were randomly divided into a negative control group and 4 study groups (groups A, B, C, and D).
as §7, §8
In this series of experiments, successfully modeled nude mice bearing human cancer cells were randomly divided into 1 negative control group and 3 study groups. […] Each group was injected intratumorally, once every 3 days, for a total of 3 times, each time with 150 μl/mouse. On the fifth day after the administration was ended, the animals were euthanized, the tumor weight was measured after anatomy, and the tumor inhibition rate was calculated from the respective negative control group.
Series [9] has as its system human lung cancer cells (A549). Description: Tumor inhibition in nude mice bearing human lung cancer cells (A549). The settings on record: Example 2; intratumoral 100 μl/mouse every 3 days x3; next day; avg tumor volume 83 mm^3.
Experimental: as §3, §4, §5
In this research experiment, successfully modeled nude mice bearing human lung cancer cells (A549) (with an average tumor volume of 83 mm^3) were randomly divided into a negative control group and 4 study groups (groups A, B, C, and D).
Series [10] has as its system human nasopharynx cancer cells (CNE1). The series is described as follows: Tumor inhibition in nude mice bearing human nasopharynx cancer cells (CNE1). Particulars: Example 2; intratumoral 100 μl/mouse every 3 days x3; next day; avg tumor volume 78 mm^3.
Experimental: as §3, §4, §5
In this research experiment, successfully modeled nude mice bearing human nasopharynx cancer cells (CNE1) (with an average tumor volume of 78 mm^3) were randomly divided into a negative control group and 4 study groups (groups A, B, C, and D).
Series [11] deals with human ovary cancer cells (PA1). The series is described as follows: Tumor inhibition in nude mice bearing human ovary cancer cells (PA1). The settings on record: Example 2; intratumoral 100 μl/mouse every 3 days x3; next day; avg tumor volume 104 mm^3.
Experimental: as §3, §4, §6, §7, §8, §9
[12] abbreviates: Table 17, avg tumor volume 317 mm^3, fifth day.
Setting [13] is: Table 6, avg tumor volume 153 mm^3, ≤120 μl/mouse every 3 days x3.
[14] abbreviates: Table 8, avg tumor volume 175 mm^3, ≤150 μl/mouse every 3 days x3.
Where [15] appears, read: Table 16, avg tumor volume 169 mm^3, intratumoral every 3 days x3, ≤150 μl/mouse, 5th day.
Setting [16] is: Table 12, avg tumor volume 317 mm^3, 5th day.
Setting [17] is: Table 14, avg tumor volume 325 mm^3, 5th day.
[18] abbreviates: Table 13, avg tumor volume 307 mm^3, 5th day.
The mark [19] stands for this setting: Example 2, intratumoral 100 μl/mouse every 3 days x3, next day, avg tumor volume 81 mm^3.
[20] abbreviates: Table 15, avg tumor volume 316 mm^3, 5th day.

Experimental for breast cancer 4T1 cells: In the following examples, unless otherwise specified, animal tests of subcutaneous transplantation tumors were performed in accordance with test guidelines issued by a drug administration authority. […] The subcutaneous transplantation was carried out according to a conventional method for subcutaneous inoculation of tumor cells. […] Items to be observed, measured and analyzed in the experiments included general status, body weight, food intake, tumor volume, tumor weight, thymus weight, spleen weight, and the like.
as §3, §4
The effects of the co-use of drugs (including efficacy and safety) can theoretically be based on the judgment of q:
q=actual combined effect/theoretical expected effect of simple addition.
When q=1, the actual combined effect meets the theoretical expectation, showing an additive effect; when q<1, the actual combined effect is weaker than the theoretical expectation, showing an antagonistic effect; and when q>1, the actual combined effect exceeds the theoretical expectation, showing a synergic effect. Unless otherwise specified, single-use efficacy of A or B (denoted as EA and EB respectively) and the actual combined efficacy of A/B (denoted as EA+B) are both tumor inhibition rates.
In one experiment, the test animal was a BALB/c mouse, the modeling cells were breast cancer 4T1 cells, and the transplantation tumor was modeled at 1×10^6 cells/mouse under the skin of the animal's right axilla. […] The experimental groups were divided into 1 negative control group (group 0) and 13 study groups (groups 1-13). They were all injected intratumorally. […] Each group was administered once every 3 days for a total of 3 times, each time at an injection dose of 150 μl//mouse. During the administration, general state of the animals and the degree of necrosis of normal tissues around the tumor after the administration were observed. On the 5th day after the administration was ended, the animals were euthanized, and the tumor weight was measured after anatomy to the animals. The tumor inhibition rate was calculated from the negative control group of each administration mode.
In another experiment, the test animal was a BALB/c mouse, the modeling cells were breast cancer 4T1 cells, and the transplantation tumor was modeled at 1×10^6 cells/mouse under the skin of the animal's right axilla. […] Each group was administered by intratumoral injection once every 3 days for a total of 3 times, each time at an injection dose of 150 μl/mouse. On the 5th day after the administration was ended, the animals were euthanized, and the tumor weight was measured after anatomy to the animals. The tumor inhibition rate was calculated from the negative control group.
In another experiment, the test animal was BALB/c mice, the modeling cells were breast cancer 4T1 cells, and the transplantation tumor was modeled at 1×10^6 cells/mouse under the skin of the animal's right axilla. […] Each group was administered by intratumoral injection once every 3 days for a total of 3 times, each time at an injection dose of 150 μl/mouse. On the 5th day after the administration was ended, the animals were euthanized, and the tumor weight was measured after anatomy to the animals. The tumor inhibition rate was calculated from the negative control group.
In another experiment, the test animal was a BALB/c mouse, the modeling cells were breast cancer 4T1 cells, and the transplantation tumor under the skin of the animal's right axilla was modeled at 1×10^6 cells/mouse.

For the compound `O=c1[nH]cc(F)c(=O)[nH]1` [1% 5-fluorouracil, 5-fluorouracil], the “Intratumoral injection Tumor inhibition rate” value in the series on breast cancer 4T1 cells is given as 51%; in series [2] (setting [13]), 66%; in series [2] (setting [14]), 67%. Moreover, the “Intratumoral injection Tumor weight” value in the series with breast cancer 4T1 cells was 0.63 ± 0.21 g; in series [2] (setting [13]), 0.78 ± 0.21 g; in series [2] (setting [14]) it was 0.84 ± 0.25 g. Further, the Tumor inhibition rate in the series on breast cancer 4T1 cells (setting [12]) was 53%; in series [2] (setting [15]) it was “(66%)”. Further, in the series with breast cancer 4T1 cells (setting [12]), the Tumor weight came out at 0.73 ± 0.21 g. The “Tumor inhibition rate of intraperitoneal injection” value amounted to 63% in series [1], 59% in series [2] (setting [13]) and 58% in series [2] (setting [14]). The “Tumor inhibition rate of intratumoral injection” value in series [1] turned out to be 59%. Moreover, the “Y(%) tumor inhibition rate” value in series [2] (Table 18, avg tumor volume 186 mm^3) is given as 61%; in [2] (Table 19, avg tumor volume 172 mm^3) it was 63%.

As to `[Na+].[OH-]` [1% NaOH, sodium hydroxide], in the series with breast cancer 4T1 cells, the “Intratumoral injection Tumor inhibition rate” value is on record as 41% and the “Intratumoral injection Tumor weight” value was 0.76 ± 0.24 g. Moreover, in the series on breast cancer 4T1 cells (setting [16]), the Tumor inhibition rate came out at 41% and the “Tumor weight (x ± s)” value came to 1.39 g. Further, in the series with breast cancer 4T1 cells (setting [17]), the Tumor inhibition rate was 42% and the “Tumor weight (x ± s)” value is reported as 1.41 ± 0.23 g. Further, in series [3] (Table 14), the “Drug pH” value turned out to be 11.8.

On to `O=C([O-])O.[Na+]` [2% sodium bicarbonate, sodium bicarbonate], for which, in the series on breast cancer 4T1 cells (setting [18]), the Tumor inhibition rate is on record as 7% and the “Tumor weight (g) (x ± s)” value was 2.10 ± 0.25 g. In series [3] (Table 13), the “Drug pH” value was determined as 6.9.

Consider `O=C([O-])[O-].[Na+].[Na+]` [2.8% sodium carbonate, sodium carbonate], for which, in the series on breast cancer 4T1 cells (setting [18]), the Tumor inhibition rate was 7% and the “Tumor weight (g) (x ± s)” value is 2.10 ± 0.27 g. Also, the “Drug pH” value in [3] (Table 13) is recorded as 10.9.

Regarding `Cl.N[C@@H](CCC(=O)O)C(=O)O` [3% glutamic hydrochloride, L-glutamic hydrochloride], the Tumor inhibition rate in [4] is recorded as 57%; in series [5], 63%; in [6] it was 61%; in series [1] (hydrochloride), 69%; in [2] (setting [19]), 62%; in series [2] (setting [15]) it was “(70%)”. Also, the Tumor inhibition rate amounted to 58% in series [7]; 59% in series [8]; 57% in series [9]; 68% in [10]; 61% in series [11]. Moreover, in [1], the “Tumor inhibition rate of intraperitoneal injection” value is 68%. In series [1], the “Tumor inhibition rate of intratumoral injection” value was found to be 5%.

Turning to `O=C([O-])O.[Na+]` [4% sodium bicarbonate, sodium bicarbonate], in the series on breast cancer 4T1 cells (setting [20]), the Tumor inhibition rate is on record as 23% and the “Tumor weight (x ± s)” value was 1.68 ± 0.27 g. For the same compound, the “Drug pH” value in [3] (Table 15) amounted to 6.9.

`O=C([O-])O.[Na+]` [5% sodium bicarbonate, sodium bicarbonate]: in the series with breast cancer 4T1 cells (setting [18]), the Tumor inhibition rate is 21% and the “Tumor weight (g) (x ± s)” value is reported as 1.79 ± 0.24 g. Also, in series [3] (Table 13), the “Drug pH” value came out at 6.9.

As to `O=C([O-])[O-].[Na+].[Na+]` [7% sodium carbonate, sodium carbonate], in the series with breast cancer 4T1 cells (setting [18]), the Tumor inhibition rate stood at 20% and the “Tumor weight (g) (x ± s)” value is listed as 1.81 ± 0.21 g. Further, in series [3] (Table 13), the “Drug pH” value amounted to 10.8.

Consider `C[C@H](N)C(=O)N[C@@H](CCC(N)=O)C(=O)O` [10% ALA-GLN, Alanyl-glutamine dipeptide] (H-Ala-Gln-OH), for which the Tumor inhibition rate in series [4] is 51%; in [5] it was 59%; in [6], 57%; in series [2] (setting [19]), 56%; in series [7], 51%; in series [8], 61%. Also, the Tumor inhibition rate in series [9] was 52%; in [10], 63%; in series [11], 62%. In [1], the “Tumor inhibition rate of intraperitoneal injection” value was found to be 53%. The “Tumor inhibition rate of intratumoral injection” value in series [1] was 2%.

For the compound `N=C(N)NCCC[C@H](N)C(=O)O` [10% arginine, L-arginine], the Tumor inhibition rate with breast cancer 4T1 cells (setting [16]) is given as 19%; in the series with breast cancer 4T1 cells (setting [12]), 21%; in series [1], 43%; in series [2] (Table 11, avg tumor volume 164 mm^3, intratumoral every 3 days x3, ≤150 μl, fifth day after last dose), “(43%)”. Moreover, the “Tumor weight (x ± s)” value in the series with breast cancer 4T1 cells (setting [16]) is 1.91 g. Also, the Tumor weight in the series on breast cancer 4T1 cells (setting [12]) was determined as 1.23 ± 0.31 g.

Turning to `O=C([O-])O.[Na+]` [10% sodium bicarbonate, sodium bicarbonate], in the series on breast cancer 4T1 cells (setting [18]), the Tumor inhibition rate is on record as 30% and the “Tumor weight (g) (x ± s)” value is given as 1.58 ± 0.22 g. Moreover, the “Drug pH” value in series [3] (Table 13) amounted to 6.8.

Turning to `O=C([O-])[O-].[Na+].[Na+]` [14% sodium carbonate, sodium carbonate], in the series on breast cancer 4T1 cells (setting [18]), the Tumor inhibition rate stood at 35% and the “Tumor weight (g) (x ± s)” value turned out to be 1.47 ± 0.24 g. The “Drug pH” value in [3] (Table 13) turned out to be 10.8.

On to `CC(=O)O` [15% acetic acid, acetic acid], for which, in the series with breast cancer 4T1 cells (setting [20]), the Tumor inhibition rate stood at 68% and the “Tumor weight (x ± s)” value came to 0.70 ± 0.18 g. In addition, the “Drug pH” value in series [3] (Table 15) stood at 2.5.

In the case of `N=C(N)NCCC[C@H](N)C(=O)O` [15% arginine, L-arginine], in the series on breast cancer 4T1 cells, the “Intratumoral injection Tumor inhibition rate” value is on record as 28% and the “Intratumoral injection Tumor weight” value stood at 0.92 ± 0.26 g. In the series with breast cancer 4T1 cells (setting [18]), the Tumor inhibition rate is recorded as 23% and the “Tumor weight (g) (x ± s)” value is recorded as 1.74 ± 0.28 g. In addition, the “Drug pH” value in [3] (Table 13) is listed as 11.0.

Consider `NCC(=O)O` [15% glycine, Glycine], for which, in the series on breast cancer 4T1 cells (setting [20]), the Tumor inhibition rate turned out to be 17% and the “Tumor weight (x ± s)” value was 1.81 ± 0.26 g. For the same compound, the “Drug pH” value in [3] (Table 15) is on record as 6.8.

For the compound `NCC(=O)O` [20% glycine, Glycine], in the series on breast cancer 4T1 cells, the “Intratumoral injection Tumor inhibition rate” value amounted to 18% and the “Intratumoral injection Tumor weight” value was 1.05 ± 0.32 g. In series [1], the “Tumor inhibition rate of intraperitoneal injection” value worked out at 52% and the “Tumor inhibition rate of intratumoral injection” value stood at 4%. Moreover, in series [2] (setting [14]), the “Intratumoral injection Tumor inhibition rate” value is 54%, the “Intratumoral injection Tumor weight” value worked out at 1.17 ± 0.28 g and the “Tumor inhibition rate of intraperitoneal injection” value came to 2%.
